Patent US3951954A, “Novel oxofuryl ester derivatives of penicillin and cephalosporin” (priority 1971, dated 1976)
Structures can show the parent of a compound that is named as a salt. Blank lines part the entries; values can stand above or below the molecule they belong to.

How the values were obtained:
[1] = Concentration of ampicillin in blood plasma of rats after oral administration (Experiment a); conditions: rat, in vivo, 20 mg/kg
Description: Now, for showing the excellent properties of the compounds of this invention, the experiments of testing the concentration of the compound in blood when it was orally administered and the results thereof are shown in the following examples together with the results of the tests made about ampicillin and pivampicillin.
Each of ampicillin tri-hydrate, pivampicillin hydrochloride-mono-hydrate, and the hydrochloride of the aimed compound of this invention was orally administered to rats (male, each group five rats) in an amount of 20 mg/kg as ampicillin and after 0.5 hour, the blood was drawn and the concentration of ampicillin in the blood plasma was measured.

[2] = background statement; cited from earlier work
[3] = Chemical Abstracts 45, 4824h (1951); 55, 8653d (1961); cited from earlier work
liver = conditions: Biochem. Pharmacol. 16, 1533-1537 (1967) and others; cited from earlier work

Structure (SMILES): CC1(C)S[C@@H]2[C@H](NC(=O)[C@H](N)c3ccccc3)C(=O)N2[C@H]1C(=O)O [Ampicillin tri-hydrate, reference compound]
concentration at 0.5 h [1]: 1000 ng/mL

Concentration of ampicillin in blood plasma ([1]; 30 min): 5580 ng/mL
Structure (SMILES): CC1(C)S[C@@H]2[C@H](NC(=O)[C@H](N)c3ccccc3)C(=O)N2[C@H]1C(=O)OC1OC(=O)c2ccccc21 (some centres unmarked) [Example 2, ampicillin 1-oxo-1,3-dihydroisobenzofuran-3-yl ester hydrochloride]

Structure (SMILES): CC1(C)S[C@@H]2C(NC(=O)C(N)c3ccccc3)C(=O)N2[C@H]1C(=O)O (stereo partly drawn) [ampicillin, 6-(α-aminophenylacetamido)penicillanic acid]
extent of absorption by oral administration [2]: not necessarily sufficient

Structure (SMILES): C=O [formaldehyde]
toxic property compared with other aldehydes of larger molecular weight [3]: about 50 times | influence on liver (liver): bad influences on a liver
